Starred links: 1 amine or outer side, 2 acyl side, 3 side chain; linkers in the order of their positions; H or OH if unused. Positions of bridges follow the written chain, without caps; N, C: chain ends. Non-standard residues stand in square brackets, D forms with d. Residues, ends and D or L forms follow the SMILES beside them. ξ: configuration not given here. *: point of attachment. Propanoyl(3-(4-HOOCCH2-Ph)) = O=C(O)Cc1ccc(CCC(=O)*)cc1; X4 = O=C([C@@H](Cc1ccc(Cc2nn[nH]n2)cc1)N[*:1])[*:2]; X9 = O=C(C(Cc1ccc(-c2nnn[nH]2)cc1)N[*:1])[*:2]; X12 = O=C(O)Cc1cccc(CC(N[*:1])C(=O)[*:2])c1; X1 = O=C(O)Cc1ccc(CC(N[*:1])C(=O)[*:2])cc1; X14 = O=C(O)c1cccc(CC(N[*:1])C(=O)[*:2])c1; ξPhe(4-COOH) = NC(Cc1ccc(C(=O)O)cc1)C(=O)O; X10 = O=C(CCc1ccc(-c2nn[nH]n2)cc1)*; NMeF = CN[C@@H](Cc1ccccc1)C(=O)O; Nle = CCCC[C@H](N)C(=O)O

In assay [1] the test system is Male Sprague-Dawley (CD) rats. Nature of the assay: Two-Meal Feeding Assay. It is filed as in vivo. As to conditions: rat. As to the method:
Male Sprague-Dawley (CD) rats weighing 180-200 grams (Charres River Breeding Laboratories) were acclimated to a 12 h light/dark cycle (6 a.m. to 6 p.m.) in a room kept at 22° C. They were subsequently fasted for two days, weighed, placed in individual cages, and a four-day period of meal training was begun. During this time the rats were given ground laboratory chow (Purina Lab Chow) in jars for one hour from 9:00 a.m. until 10:00 a.m., the jars were removed from 10:00 a.m. to 12:00 p.m., and placed back in the cages from 12:00 until 1:00 p.m. Under this `1-2-1` meal feeding regime, most rats learn to eat approximately as much per day during the two hours they have access to food as rats which have food ad libitum over the entire 24-hour day. On the fourth day, the rats were weighed again, and any which lost more than five grams body weight were excluded from the test. The animals were then distributed into experimental (n=5 to 6) and control groups (n=6-12), but not matched for body weight.
Peptides of the invention were suspended either in saline, if soluble, or in 0.5% DMSO/saline, if insoluble, at concentrations of 0 to 320 μg/mL/kg body weight and were administered intraperitoneally 15 min before the first meal on day 5 of meal feeding. The rats were then given their meals as they had been during the previous four days, and the food cups were weighed both before and after each meal to determine food consumption. Food intake was expressed as a mean and standard error of the mean in percent of control values for the various groups. The treated groups were compared to the control groups by t-test analysis.

The target of assay [2] is T1, rat pancreas (3H-CCK-8-(SO3 H) receptor binding) (Rattus norvegicus, UniProt P30551).
T1 construct: pancreas approximately 0.100 mg protein in 1 mL final volume; from tissue; host or cells: rat pancreas membrane homogenate
T1 sequence (P30551 1-444): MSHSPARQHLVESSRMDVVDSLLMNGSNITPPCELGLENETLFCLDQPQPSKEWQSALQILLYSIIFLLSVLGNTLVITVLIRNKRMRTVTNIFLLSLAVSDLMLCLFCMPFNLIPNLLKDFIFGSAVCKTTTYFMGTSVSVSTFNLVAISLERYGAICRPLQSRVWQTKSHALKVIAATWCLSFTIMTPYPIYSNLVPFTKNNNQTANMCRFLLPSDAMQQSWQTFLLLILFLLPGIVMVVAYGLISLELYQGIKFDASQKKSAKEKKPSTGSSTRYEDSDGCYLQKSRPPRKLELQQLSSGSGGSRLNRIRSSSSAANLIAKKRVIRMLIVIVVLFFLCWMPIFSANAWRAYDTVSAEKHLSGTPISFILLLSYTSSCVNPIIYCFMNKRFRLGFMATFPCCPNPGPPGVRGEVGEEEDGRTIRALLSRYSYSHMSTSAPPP
Description: In vitro receptor binding assay, 3H-CCK-8-(SO3H), rat pancreas homogenate. To be noted: 3H-CCK-8-(SO3H) 0.15 nM, 30 min at 25° C., rat pancreas homogenate; read-out: Rate Pancreas IC50 (concentration to inhibit 50% of specific 3H-CCK-8-(SO3H) binding). The method, then:
(§1) Frozen bovine striatum (approx. 5 g) or fresh rat pancreas (approx. 5 g) cleaned of fat and extraneous tissue were homogenized in HEPES buffer #1 (10 mM HEPES+130 mM NaCl+5 mM MgCl2, pH 7.4) using 35 parts buffer per 1 part tissue on a wet weight/volume basis (approx. 175 mL). The tissue was homogenized 2×for approx. 15 sec. at 0° C. using a Polytron homogenizer at a setting of 6. The tissue was isolated by centrifugation at 48,000× g for 10 min at 0° C. The resulting tissue pellet was resuspended in HEPES buffer #2 (10 mM HEPES+130 mM NaCl+5 mM MgCl2 +1 mg/L phenylmethanasulfonyl fluoride (PMSF)+200 mg/L Bacitracin): 1 part striatal tissue (original wet weight) per 80 parts buffer and 1 part pancreas tissue (original wet weight) per 500 to 1000 parts buffer.
(§2) Incubation was initiated by combining various concentrations of native CCK-8 or peptides of the invention with ^3 H-CCK-8-(SO3 H) (final conc.=0.15 nM) and tissue homogenate (striatum approximately 0.26 mg protein in 2 mL final volume; pancreas approximately 0.100 mg protein in 1 mL final volume). Samples were incubated for 30 min at 25° C. and the incubation terminated by pouring the mixture onto a pre-wetted Whatman GF/B filter on a Sandbeck Vacuum Filtration Manifold. The incubation tubes were washed with 2×3 mL of ice-cold HEPES Buffer #2 and the wash filtered through the GF/B filter. The filter was air dried for 10 min and then placed in a scintillation vial with 12 mL of DuPont/NEN Aquasol scintillation cocktail. The vials were shaken overnight and then counted using a liquid scintillation spectrometer. Non-specific binding was determined in the presence of 1 micromolar native CCK-8 and subtracted from all samples to determine specific binding. The concentration of peptide necessary to inhibit 50% of total specific H-CCK-8-(SO3 H) binding (IC50 value) was determined by log-probit analysis.

Assay [3] addresses T2, Bovine Striatum (3H-CCK-8-(SO3 H) receptor binding) (Bos taurus, UniProt P79266).
T2 construct: tissue homogenate (striatum approximately 0.26 mg protein in 2 mL final volume); from tissue; host or cells: bovine striatum membrane homogenate
T2 sequence (P79266 1-454): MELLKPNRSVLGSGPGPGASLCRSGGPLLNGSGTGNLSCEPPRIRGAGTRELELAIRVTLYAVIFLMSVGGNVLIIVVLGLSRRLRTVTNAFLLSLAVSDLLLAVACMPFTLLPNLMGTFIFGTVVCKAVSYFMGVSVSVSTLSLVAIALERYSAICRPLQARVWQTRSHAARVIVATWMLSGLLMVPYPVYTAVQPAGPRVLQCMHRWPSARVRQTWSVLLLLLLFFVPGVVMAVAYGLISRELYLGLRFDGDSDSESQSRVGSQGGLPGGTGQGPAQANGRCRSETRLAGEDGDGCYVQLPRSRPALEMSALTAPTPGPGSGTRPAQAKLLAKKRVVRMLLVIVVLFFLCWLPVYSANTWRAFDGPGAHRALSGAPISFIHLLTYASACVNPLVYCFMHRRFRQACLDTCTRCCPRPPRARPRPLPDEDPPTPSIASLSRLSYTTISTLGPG
Nature of the assay: In vitro receptor binding assay, 3H-CCK-8-(SO3H), bovine striatum homogenate. To be noted: 3H-CCK-8-(SO3H) 0.15 nM, 30 min at 25° C., bovine striatum homogenate; read-out: Bovine Striatum IC50 (concentration to inhibit 50% of specific 3H-CCK-8-(SO3H) binding). The method, then: as §1, §2

Where [4] appears, read: dose 10 Microgram/kg intraperitoneally 15 min before first meal.
Setting [5] is: dose 32 Microgram/kg intraperitoneally 15 min before first meal.
[6] abbreviates: dose 100 Microgram/kg intraperitoneally 15 min before first meal.
Where [7] appears, read: dose 320 Microgram/kg intraperitoneally 15 min before first meal.

Turning to `CCCC[C@H](NC(=O)[C@H](Cc1c[nH]c2ccccc12)NC(=O)CNC(=O)[C@H](CCCC)NC(=O)[C@@H](Cc1ccc(Cc2nn[nH]n2)cc1)NC(C)=O)C(=O)N[C@@H](CC(=O)O)C(=O)N(C)[C@@H](Cc1ccccc1)C(N)=O` [Example 64, Ac-(D)-Phe(4-CH2 -tetrazole)-Nle-Gly-Trp-Nle-Asp-N-methyl-Phe-NH2] (Ac-[X4][Nle]GW[Nle]D[NMeF]-NH2), the “Food Intake 1st Meal” value in assay [1] (setting [4]) is 112 ± 10 % of Control; in assay [1] (setting [5]) it was 79 ± 5 % of Control; in assay [1] (setting [6]) it was 56 % of Control; in assay [1] (setting [7]), 21 ± 6 % of Control. The “Food Intake 2nd Meal” value is on record as 102 ± 9 % of Control in assay [1] (setting [4]), 148 ± 12 % of Control in assay [1] (setting [5]), 173 ± 5 % of Control in assay [1] (setting [6]) and 207 % of Control in assay [1] (setting [7]).

As to `CSCC[C@@H]1NC(=O)[C@H](Cc2c[nH]c3ccccc23)NC(=O)CNC(=O)[C@@H](NC(=O)C(Cc2ccc(-c3nnn[nH]3)cc2)NC(C)=O)CCCCNC(=O)C[C@@H](C(=O)N(C)[C@@H](Cc2ccccc2)C(N)=O)NC1=O` (stereo partly shown) [Example 57] (Ac-[X9]KGWMD[NMeF]-NH2; lactam 2-6), the results for the “Food Intake 1st Meal” value in assay [1] (setting [5]) and in assay [1] (setting [7]) were 75 ± 6 % of Control and 36 ± 3 % of Control, respectively. The “Food Intake 2nd Meal” value in assay [1] (setting [5]) is reported as 160 ± 14 % of Control; in assay [1] (setting [7]), 148 ± 6 % of Control. For the same compound, the IC50 in assay [2] was 1.1 µM; in assay [3], 0.58 µM.

For the compound `CSCC[C@H](NC(=O)C(Cc1ccc(CC(=O)O)cc1)NC(C)=O)C(=O)NCC(=O)N[C@@H](Cc1c[nH]c2ccccc12)C(=O)N[C@@H](CCSC)C(=O)N[C@@H](CC(=O)O)C(=O)N[C@@H](Cc1ccccc1)C(N)=O` (stereo partly drawn) [Example 46, Ac-(D,L)Phe(4-CH2 COOH)-Met-Gly-Trp-Met-Asp-Phe-NH2] (Ac-[X1]MGWMDF-NH2), the IC50 in assay [2] turned out to be 0.0036 µM; in assay [3], 0.047 µM.

On to `CSCC[C@H](NC(=O)C(Cc1cccc(CC(=O)O)c1)NC(C)=O)C(=O)NCC(=O)N[C@@H](Cc1c[nH]c2ccccc12)C(=O)N[C@@H](CCSC)C(=O)N[C@@H](CC(=O)O)C(=O)N[C@@H](Cc1ccccc1)C(N)=O` (stereo partly drawn) [Example 58, Ac-(D,L)Phe-(3-CH2 COOH)-Met-Gly-Trp-Met-Asp-Phe-NH2] (Ac-[X12]MGWMDF-NH2), for which the IC50 was 0.023 µM in assay [2] and 0.053 µM in assay [3].

For the compound `CSCC[C@@H]1NC(=O)[C@H](Cc2c[nH]c3ccccc23)NC(=O)CNC(=O)[C@@H](NC(=O)CCc2ccc(-c3nn[nH]n3)cc2)CCCCNC(=O)C[C@@H](C(=O)N(C)[C@@H](Cc2ccccc2)C(N)=O)NC1=O` [Example 68] (X10-KGWMD[NMeF]-NH2; lactam 1-5), the IC50 in assay [2] amounted to 2.9 µM; in assay [3], 1.4 µM.

For `CSCC[C@H](NC(=O)CCc1ccc(CC(=O)O)cc1)C(=O)NCC(=O)N[C@@H](Cc1c[nH]c2ccccc12)C(=O)N[C@@H](CCSC)C(=O)N[C@@H](CC(=O)O)C(=O)N(C)[C@@H](Cc1ccccc1)C(N)=O` [Example 69, Desamino-Phe(4-CH2 -COOH)-Met-Gly-Trp-Met-Asp-N-methyl-Phe-NH2] ({Propanoyl(3-(4-HOOCCH2-Ph))}-MGWMD[NMeF]-NH2), the IC50 was found to be 0.0018 µM in assay [2] and 0.0032 µM in assay [3].

`CSCC[C@H](NC(=O)C(Cc1ccc(C(=O)O)cc1)NC(C)=O)C(=O)NCC(=O)N[C@@H](Cc1c[nH]c2ccccc12)C(=O)N[C@@H](CCSC)C(=O)N[C@@H](CC(=O)O)C(=O)N[C@@H](Cc1ccccc1)C(N)=O` (stereo partly drawn) [Example 43, AC-(D,L)Phe(4-COOH)-Met-Gly-Trp-Met-Asp-Phe-NH2] (Ac-[ξPhe(4-COOH)]MGWMDF-NH2): the IC50 was 0.062 µM in assay [2] and 0.034 µM in assay [3].

Consider `CSCC[C@H](NC(=O)C(Cc1cccc(C(=O)O)c1)NC(C)=O)C(=O)NCC(=O)N[C@@H](Cc1c[nH]c2ccccc12)C(=O)N[C@@H](CCSC)C(=O)N[C@@H](CC(=O)O)C(=O)N[C@@H](Cc1ccccc1)C(N)=O` (stereo partly drawn) [Example 42, Ac-(D,L)Phe(3-COOH)-Met-Gly-Trp-Met-Asp-Phe-NH2] (Ac-[X14]MGWMDF-NH2), for which the IC50 in assay [2] turned out to be 0.128 µM; in assay [3] it was 0.032 µM.

Consider `CCCC[C@H](NC(=O)CCc1ccc(CC(=O)O)cc1)C(=O)N[C@H](C)C(=O)N[C@@H](Cc1c[nH]c2ccccc12)C(=O)N[C@@H](CCCC)C(=O)N[C@@H](CC(=O)O)C(=O)N(C)[C@@H](Cc1ccccc1)C(N)=O` [Example 71, Desamino-Phe(4-CH2 COOH)-Nle-(D)Ala-Trp-Nle- Asp-N-methyl-Phe-NH2] ({Propanoyl(3-(4-HOOCCH2-Ph))}-[Nle][dA]W[Nle]D[NMeF]-NH2), for which the IC50 was 1.8 µM in assay [2] and 1.4 µM in assay [3].

These data come from US5508437A, “Analogs of tyrosine sulfate or tyrosine phosphate containing peptides” (Hoffmann-La Roche Inc., priority 1993, dated 1996).
